Laboratory results taken from patent publication US6924366B2, “Recombinant hexose oxidase, a method of producing same and use of such enzyme” (Bioteknologisk Institut, priority 1995, dated 2005).

Columns and labels:
[1] = biological target: T1, hexose oxidase from Chondrus crispus (Chondrus crispus, UniProt P93762); settings: reported by Sullivan and Ikawa (1973); cited from earlier work
T1 sequence (P93762 1-546): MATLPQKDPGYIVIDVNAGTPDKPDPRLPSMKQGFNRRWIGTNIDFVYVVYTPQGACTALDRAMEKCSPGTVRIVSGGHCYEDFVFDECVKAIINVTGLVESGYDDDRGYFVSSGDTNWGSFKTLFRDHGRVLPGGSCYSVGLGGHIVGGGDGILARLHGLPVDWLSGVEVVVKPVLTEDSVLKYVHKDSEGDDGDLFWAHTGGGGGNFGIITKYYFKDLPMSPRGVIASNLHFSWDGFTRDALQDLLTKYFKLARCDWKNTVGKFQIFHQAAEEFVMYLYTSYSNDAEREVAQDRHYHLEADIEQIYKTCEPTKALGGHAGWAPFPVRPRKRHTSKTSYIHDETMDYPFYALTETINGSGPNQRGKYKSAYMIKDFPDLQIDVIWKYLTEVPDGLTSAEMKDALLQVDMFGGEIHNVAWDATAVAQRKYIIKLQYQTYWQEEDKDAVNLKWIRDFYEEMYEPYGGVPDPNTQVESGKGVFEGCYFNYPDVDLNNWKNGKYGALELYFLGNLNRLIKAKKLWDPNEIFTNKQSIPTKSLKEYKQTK

[2] = biological target: T2, native hexose oxidase from Chondrus crispus (Chondrus crispus, UniProt P93762); experiment: Inhibition of native hexose oxidase by sodium diethyldithiocarbamate; assay type: biochemical; settings: read-out: Inhibition (%), Native enzyme
T2 construct: the native form isolated from Chondrus crispus; from tissue; host or cells: Chondrus crispus (red alga) fronds
T2 sequence (P93762 4-337 limits assumed): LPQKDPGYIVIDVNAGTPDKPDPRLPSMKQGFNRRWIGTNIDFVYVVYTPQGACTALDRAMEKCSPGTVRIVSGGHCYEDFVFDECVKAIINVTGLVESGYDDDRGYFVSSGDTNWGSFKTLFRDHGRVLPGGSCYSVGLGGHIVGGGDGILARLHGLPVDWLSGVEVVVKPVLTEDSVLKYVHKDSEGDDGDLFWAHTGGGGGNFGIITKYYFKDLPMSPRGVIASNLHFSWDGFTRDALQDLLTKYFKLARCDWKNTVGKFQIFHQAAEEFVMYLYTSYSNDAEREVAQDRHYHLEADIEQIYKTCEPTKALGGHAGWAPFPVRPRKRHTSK
T2 sequence (P93762 338-546 limits assumed): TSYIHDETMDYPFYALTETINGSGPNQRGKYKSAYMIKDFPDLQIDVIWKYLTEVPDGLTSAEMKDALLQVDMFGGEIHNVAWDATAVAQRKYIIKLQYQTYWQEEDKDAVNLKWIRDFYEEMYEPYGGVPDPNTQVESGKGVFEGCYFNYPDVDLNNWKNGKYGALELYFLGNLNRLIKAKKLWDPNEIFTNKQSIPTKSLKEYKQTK
Procedure: (§1) The procedure used was essentially as described by Sullivan and Ikawa, 1973. This assay is based on the principle that the hydrogen peroxide formed in the oxidation of the sugar in the presence of peroxidase reacts with the chromogenic substance, o-dianisidine to form a dye with absorbance at 402 nm.
(§2) The assay mixture consisted of 1-40 μl of enzyme sample and 850 μl of an assay solution containing 370 μl of 0.1 M sodium phosphate buffer, pH 7.0; 462 μl of 0.1 M D-glucose in 0.1 M sodium phosphate buffer, pH 7.0; 9 μl of horse radish peroxidase, 0.1 mg/ml in water (Sigma Chemicals, cat. no. P 6782 or Boehringer Mannheim, cat. no. 814 393); and 9 μl of o-dianisidine.2HCl, 3.0 mg/ml in water (3,3′-dimethoxybenzidine, Sigma Chemicals). After incubation at room temperature for 15 or 30 minutes the assay was stopped by addition of one drop of 37% HCl (Merck, p.a.). Samples of 100 μl were transferred from the assay tubes to the wells of a microtiter plate (NUNC, Denmark) and the absorbance at 410 nm was read on a Titertek Multiskan II PLUS plate reader (Labsystems/Flow Laboratories, Finland). To ensure that the observed activity was due to hexose oxidase—and not glucose oxidase—the assay was occasionally performed with D-galactose as the substrate instead of D-glucose. […]

[3] = biological target: T3, recombinant hexose oxidase from Pichia pastoris (Chondrus crispus, UniProt P93762); experiment: Inhibition of recombinant hexose oxidase by sodium diethyldithiocarbamate; assay type: biochemical; settings: read-out: Inhibition (%), Recombinant enzyme
T3 construct: the entire hexose oxidase gene was amplified and isolated from at least three independent PCR amplifications; made in house; host or cells: Pichia pastoris KM71 with plasmid pUPO153 (pPIC3 vector), intracellular
T3 sequence (P93762 4-337 limits assumed): T2 sequence (P93762 4-337 limits assumed)
T3 sequence (P93762 338-546 limits assumed): T2 sequence (P93762 338-546 limits assumed)
Procedure: as §1, §2

[4] = biological target: T4, native hexose oxidase from Chondrus crispus (Chondrus crispus, UniProt P93762); settings: literature data; cited from earlier work
T4 sequence (P93762 1-546): T1 sequence (P93762 1-546)

[5] = biological target: T3, recombinant hexose oxidase from Pichia pastoris; experiment: Substrate specificity of recombinant hexose oxidase (o-dianisidine/peroxidase assay); assay type: biochemical; settings: sugar at a final concentration of 0.1 M; recombinant hexose oxidase expressed in Pichia pastoris
Procedure: as §1
(§3) The assay mixture consisted of 1-40 μl of enzyme sample and 850 μl of an assay solution containing 370 μl of 0.1 M sodium phosphate buffer, pH 7.0; 462 μl of 0.1 M D-glucose in 0.1 M sodium phosphate buffer, pH 7.0; 9 μl of horse radish peroxidase, 0.1 mg/ml in water (Sigma Chemicals, cat. no. P 6782 or Boehringer Mannheim, cat. no. 814 393); and 9 μl of o-dianisidine.2HCl, 3.0 mg/ml in water (3,3′-dimethoxybenzidine, Sigma Chemicals). After incubation at room temperature for 15 or 30 minutes the assay was stopped by addition of one drop of 37% HCl (Merck, p.a.). Samples of 100 μl were transferred from the assay tubes to the wells of a microtiter plate (NUNC, Denmark) and the absorbance at 410 nm was read on a Titertek Multiskan II PLUS plate reader (Labsystems/Flow Laboratories, Finland). To ensure that the observed activity was due to hexose oxidase—and not glucose oxidase—the assay was occasionally performed with D-galactose as the substrate instead of D-glucose.
(§4) The substrate specificity of recombinant hexose oxidase from Pichia pastoris and native hexose oxidase from Chondrus crispus was compared using a number of sugars at a final concentration of 0.1 M in the assay described above.

[6] = biological target: T2, native hexose oxidase from Chondrus crispus; experiment: Substrate specificity of native hexose oxidase (o-dianisidine/peroxidase assay); assay type: biochemical; settings: sugar at a final concentration of 0.1 M
Procedure: as §1, §3, §4

| Compound | Inhibition of hexose oxidase (in words) [1] | inhibition at 10 µM [2] [%] | inhibition at 100 µM [2] [%] | inhibition at 10 µM ([3]; concentration of inhibitor 0.01 mM) [%] | inhibition at 100 µM ([3]; concentration of inhibitor 0.1 mM) [%] | Relative rate, native enzyme, Sullivan and Ikawa, 1973 [4] | Relative rate, recombinant enzyme [5] | Relative rate, native enzyme, this work [6] |
| --- | --- | --- | --- | --- | --- | --- | --- | --- |
| CCN(CC)C(=S)[S-].[Na+] [sodium diethyldithiocarbamate] | strongly inhibited | 41 | 95 | 39 | 96 | – | – | – |
| O=C[C@H](O)[C@@H](O)[C@H](O[C@@H]1O[C@H](CO)[C@@H](O)[C@H](O)[C@H]1O)[C@H](O)CO [Cellobiose] | – | – | – | – | – | 32 | 51 | 33 |
| O=C[C@H](O)[C@@H](O)[C@H](O)[C@H](O)CO [D-Glucose] | – | – | – | – | – | 100 | 100 | 100 |
| OC[C@H]1O[C@H](O[C@H]2[C@H](O)[C@@H](O)[C@H](O)O[C@@H]2CO)[C@H](O)[C@@H](O)[C@@H]1O [Maltose] | – | – | – | – | – | 40 | 57 | 37 |
| OC[C@H]1O[C@@H](O[C@H]2[C@H](O)[C@@H](O)C(O)O[C@@H]2CO)[C@H](O)[C@@H](O)[C@H]1O (some centres unmarked) [Lactose] | – | – | – | – | – | 22 | 38 | 25 |
| O=C[C@H](O)[C@@H](O)[C@@H](O)[C@H](O)CO [D-Galactose] | – | – | – | – | – | 82 | 75 | 75 |
